# Source: US7109197B2, “N-phenyl-4-(4-pyridyl)-2-pyrimidineamine derivatives” (Syngenta Crop Protection, Inc., priority 2000, dated 2006)
# Like-named read-outs stand apart in the source and are kept apart here.
# Tests used:
# [1] = system: Puccinia graminis; format: in vivo
# [2] = system: Phytophthora infestans; format: in vivo
# [3] = Puccinia graminis on wheat cv. Arina, 0.02% active substance spray (residual) or 0.002% soil (systemic), variant not stated
Compound,B1 activity ([1]; in vivo),"B1 activity [1, 3]",further results
Nc1cc(-c2ccnc(Nc3cccc(Cl)c3)n2)ccn1 [Compound 58],+ (key: +: the activity observed in the corresponding test system is 70% or more),–,–
CCNc1cc(-c2ccnc(Nc3cccc(Cl)c3)n2)ccn1 [Compound 60],+ (key: +: the activity observed in the corresponding test system is 70% or more),–,–
Clc1cccc(Nc2nccc(-c3ccnc(NCC4CCCO4)c3)n2)c1 (centres unmarked) [Compound 75],–,+ (the activity observed in the corresponding test system is 70% or more),–
CCC(CO)Nc1cc(-c2ccnc(Nc3cccc(Cl)c3)n2)ccn1 (centres unmarked) [Compound 31],–,+ (the activity observed in the corresponding test system is 70% or more),"B2 activity ([2]; Phytophthora infestans on tomato cv. Roter Gnom, 0.02% active substance spray (residual) or 0.002% soil (systemic), variant not stated): + (the activity observed in the corresponding test system is 70% or more)"
Clc1cccc(Nc2nccc(-c3ccnc(NCCCOc4ncccn4)c3)n2)c1 [Compound 94],–,+ (the activity observed in the corresponding test system is 70% or more),–
OCCCNc1cc(-c2ccnc(Nc3cccc(Cl)c3)n2)ccn1 [Compound 46],–,+ (the activity observed in the corresponding test system is 70% or more),–
Clc1cccc(Nc2nccc(-c3ccnc(NC4CCOC4)c3)n2)c1 (centres unmarked) [Compound 2],–,+ (the activity observed in the corresponding test system is 70% or more),–
CC(C)Nc1cc(-c2ccnc(Nc3cccc(Cl)c3)n2)ccn1 [Compound 68],+ (key: +: the activity observed in the corresponding test system is 70% or more),–,–
CNc1cc(-c2ccnc(Nc3cccc(Cl)c3)n2)ccn1 [Compound 64],–,–,B2 activity ([2]; in vivo): + (key: +: the activity observed in the corresponding test system is 70% or more)
CC(CO)Nc1cc(-c2ccnc(Nc3cccc(Cl)c3)n2)ccn1 (centres unmarked) [Compound 39],–,+ (the activity observed in the corresponding test system is 70% or more),–
